Legend:
[1] = 37° C.; cited from earlier work

Substance	Intrinsic Dissolution Rates (37° C., solution of pH 8)	further results
ferric citrate [crystalline ferric citrate]	–	rate of dissolution (time) [1]: 10 to 12 h
ferric citrate [PAN031203D]	2.95 mg/cm^2/min	–
ferric citrate [PAN031203E]	3.13 mg/cm^2/min	–
ferric citrate [STM-134, reference compound]	1.88 mg/cm^2/min	Mean Intrinsic Dissolution Rates (37° C., solution of pH 8): 1.88 mg/cm^2/min; Mean Dissolution Rates (Table 2, one value for the pair of samples -1 and -2, listed as STM-134-1): 2.47 mg/cm2/min
ferric citrate [PAN031203C]	2.68 mg/cm^2/min	–
ferric citrate [PAN031203A]	3.82 mg/cm^2/min	–
ferric citrate [PAN031203B]	4.00 mg/cm^2/min	–
